According to patent US11304956B2, “Use of 7-bromo-5-(O-chlorophenyl)-3-propoxy-1,2-dihydro-3H-1,4-benzodiazepin-2-one for inhibition of neuropathic pain and seizures of different etiology” (priority 2016, dated 2022):

Experiments:
gastric mucosa = experiment: Ulcerogenic effect, acute experiment (single intragastric dose); assay type: in vivo, rats; conditions: 3 hours; for Average score: 4-score scale; for Multiplicity of damage: number of ulcers per animal
Procedure: The disadvantage of most analgesics is the fact that they have ulcerogenic effect that interferes with their long-term use. We have studied this side effect of Compound 1 in acute and subchronic experiments. In the first scheme, the compound in the form of an aqueous suspension (Tween-80) was administered in single dose intragastrically to rats, which had previously been deprived of food for 16 hours with free access to water. After 3 hours, the animals were euthanized with a cervical dislocation, then, after dissection of the abdominal cavity, stomachs were ejected and washed in isotonic sodium chloride solution to take out the contents. Damage of stomach was determined visually. In the second scheme, the compound was administered intragastrically for 4 days, after that the extent of the damaging effect on the stomach was determined, as in the previous experiment.
Evaluation of ulcerogenic action was carried out on a 4-score scale:
0 score—no damage; 0.5 score—hyperemia (blood vessels overflow)
1 score—single minor lesions (1-3 point hemorrhages or small ulcers)
2 score—multiple (more than 3) lesions (erosions, pinpoint hemorrhages) or 1 large ulcer
3 score—significant and massive damages (erosions, hemorrhages) of the gastric mucosa with significant size (diameter up to 4 mm)
4 score—gross injuries (massive hemorrhages, erosions, perforations) that cover the entire surface of the gastric mucosa.
The average multiplicity index of damage to the gastric mucosa (the number of ulcers per animal) and the severity of the damage (in scores) were determined.
Compound 1 was administered over a wide dose range—in acute studies—50, 250, 500 and 1000 mg/kg. For the subchronic experiment, the compound was used at a dose of 50 mg/kg.

[1] = test system: carrageenan rat paw edema; experiment: Carrageenan rat paw edema; assay type: in vivo, male white rats
Description: Given the fact that Compound 1 affects not only the painful, but also the inflammatory phase, we undertook an in-depth study of its anti-inflammatory effect. The most common screening method of anti-inflammatory activity is the model of inflammatory edema of the rat hind paw, induced by the subplantar administration of various phlogogenic agents. Under the conditions of carrageenan administration, a sufficiently pronounced edema reaction is observed, which slowly develops and persists for a long time. The maximum size of edema is observed in 2-4 hours.
The anti-inflammatory properties of the test compounds were studied in the model of carrageenan rat paw edema. Male white rats weighing 150-180 g were used in the experiments. Before the administration of the experimental substances, the volumes of the rats' paws subsequently injected by phlogogen were measured. The test compounds and the reference drug—diclofenac-sodium, were administered intraperitoneally 40 minutes prior the inflammation induction. The control group of the rats received an equivalent amount of physiological solution in the emulsion with Tween-80. Acute aseptic inflammation was induced by a 1% aqueous solution of 0.1 ml)—carrageenan injection under plantar aponeurosis of the hind paw of animals of the experimental and control groups (see Trinus F. P. Nonsteroidal anti-inflammatory drugs/F. P. Trinus, N. A. Mohort, B. M. Klebanov//K., 1975, pp. 204-231., Winter C. A. Carrageenin—induced edema in hind paw of the rat as an assay for antiinflammatory drugs/C. A. Winter, E. A. Risley, G. V. Nuss//Proc. Soc. Exp. Biol. Med.—1962.—Vol. 111.—P. 544-547). The inflammatory reaction significance was evaluated after two and four hours after the phlogogen injection. Registration of edema size was carried out by mechanical measurement of foot volume in dynamics according to Zakharevsky A. S. (see Zaharevskiy A. S. The influence of some indole derivatives on the nervous system. Diss. cand. med. science/Zaharevskiy Aleksandr Stepanovich-Minsk.—1969.—78-80 p.). The edema extent was estimated according to the difference in volume between the swollen paw and the paw before inflammation induction. The anti-inflammatory efficacy of the test compounds was determined as the ability of the test compounds to suppress the inflammatory response in the experimental animals compared to the control animals and expressed as a percentage. The calculation was carried out according to the following formula:
The percentage of inflammation suppression=(ΔVκ−ΔV ? /ΔVκ)·100%,
where: ΔVκ—the average increase in the volume of the swollen paw in the control;
ΔV ? —the average increase in the volume of the swollen paw in animals injected by experimental substances.

[2] = test system: model of neuropathic pain in rats; experiment: Model of neuropathic pain (sciatic nerve ligation), threshold of pain sensitivity by dolorimeter; assay type: in vivo, male Wistar rats; conditions: for Changes in the threshold of pain perception, regarding healthy limb: damaged vs healthy limb before administration (baseline); for Threshold of pain sensitivity, damaged limb / Threshold of pain sensitivity, healthy limb: day 14 after ligation, before administration (baseline), M±m, n=10; for Threshold of pain sensitivity 2 hours after compounds administration: damaged limb
Procedure: An evaluation of the antinociceptive action of the test compound (1) on a model of neuropathic pain was carried out on 50 male Wistar rats weighing 270-310 g. The model of neuropathic pain was reproduced by ligation of the sciatic nerve at the level of the upper third of the thigh at the level of the popliteal fossa higher than the site of its trifurcation by N. tibialis, N. peroneus and N. suralis (see Mironov A. N. et al. Guidelines for conducting preclinical studies of drugs. Part one.—Moscow 2012. p. 197-219). The development of the pathological process lasted 14 days. The degree of hyperalgesia was determined using a dolorimeter (Dolorimeter Baseline, USA) by determining the threshold of pain sensitivity (TPS)—the minimum pressure on the lower surface of the rat's foot (g/mm^2), which caused pain in the animal (vocalization and/or withdrawal of the foot). Each animal was given 5 attempts; the threshold value was taken with such a pressure force, which caused a positive response in at least one attempt. The threshold of pain sensitivity was compared on intact and damaged limbs on day 14 after ligation (pathology without treatment), as well as on the injured limb after 2 hours (peak of action) after the drugs administration. The test compound and the reference drug (ketorolac) were administered intragastrally (as gavage) once at doses of 0.5 and 3 mg/kg. Sciatic nerve ligation in animals caused the development of neuropathic pain syndrome, which manifested itself in behavioral reactions of the rat and lowering the threshold of pain sensitivity by an average of 44-48% (see Table 1). The analgesic effect of Compound 1 compared with ketorolac under the conditions of their intragastral administration on the model of neuropathic pain in rats (M±m, n=10, where n is the number of animals in the experiments) is shown in Table 1.

[3] = 50 mg/kg single intragastric dose
[4] = 250 mg/kg single intragastric dose
[5] = 500 mg/kg single intragastric dose
[6] = 1000 mg/kg single intragastric dose
[7] = 3.0 mg/kg intraperitoneally 40 min before carrageenan
[8] = 10.0 mg/kg intraperitoneally 40 min before carrageenan

In the case of `CCCOC1N=C(c2ccccc2Cl)c2cc(Br)ccc2NC1=O` (stereo not drawn) [Compound 1, 7-bromo-5-(o-chlorophenyl)-3-propoxy-1,2-dihydro-3H-1,4-benzodiazepin-2-one], the “Number of animals with lesions of the gastric mucosa, score 1” value (shortened to “Number of animals with lesions … score 1”) (gastric mucosa; [3]) is reported as 3, the “Number of animals with lesions of the gastric mucosa, score 2” value (from here on “Number of animals with lesions … score 2”) (gastric mucosa; [3]) is reported as 0 and the “Number of animals with lesions of the gastric mucosa, score 3” value (“Number of animals with lesions … score 3” for short) (gastric mucosa; [3]) is reported as 0. The “Number of animals with lesions of the gastric mucosa, score 4” value (“Number of animals with lesions … score 4” for short) (gastric mucosa; [3]) was 0, the Average score (gastric mucosa; [3]) was 0.2 ± 0.13 and the Multiplicity of damage (gastric mucosa; [3]) was 0.5 ± 0.34. For the same molecule, the “Number of animals with lesions … score 1” value (gastric mucosa; [4]) was 5, the “Number of animals with lesions … score 2” value (gastric mucosa; [4]) was 2 and the “Number of animals with lesions … score 3” value (gastric mucosa; [4]) was 0. For the same molecule, the “Number of animals with lesions … score 4” value (gastric mucosa; [4]) was 0, the Average score (gastric mucosa; [4]) was 0.8 ± 0.25 and the Multiplicity of damage (gastric mucosa; [4]) was 0.9 ± 0.31. The “Number of animals with lesions … score 1” value (gastric mucosa; [5]) was 7, the “Number of animals with lesions … score 2” value (gastric mucosa; [5]) was 3 and the “Number of animals with lesions … score 3” value (gastric mucosa; [5]) was 0. The “Number of animals with lesions … score 4” value (gastric mucosa; [5]) was 0, the Average score (gastric mucosa; [5]) was 1.0 ± 0.21 and the Multiplicity of damage (gastric mucosa; [5]) was 1.2 ± 0.25. The “Number of animals with lesions … score 1” value (gastric mucosa; [6]) was 8, the “Number of animals with lesions … score 2” value (gastric mucosa; [6]) was 3 and the “Number of animals with lesions … score 3” value (gastric mucosa; [6]) was 0. The “Number of animals with lesions … score 4” value (gastric mucosa; [6]) was 0, the Average score (gastric mucosa; [6]) was 1.3±0.21 and the Multiplicity of damage (gastric mucosa; [6]) was 2.0 ± 0.37. For the same molecule, the “Inhibition of edema in 2 hours (%)” value [1, 7] was 36.7 ± 4.1 %, the “Inhibition of edema in 4 hours (%)” value [1, 7] was 25.00 ± 2.7 % and the “Inhibition of edema in 2 hours (%)” value [1, 8] was 47.0 ± 4.1 %. For the same molecule, the “Inhibition of edema in 4 hours (%)” value [1, 8] was 26.70 ± 5.4 %, the “Changes in the threshold of pain perception, regarding healthy limb” value ([2]; 0.5 mg/kg group) was −48.4 ± 4.6% and the “Threshold of pain sensitivity, damaged limb” value ([2]; 0.5 mg/kg group) was 223.5 ± 20.1 g/mm^2. The “Threshold of pain sensitivity, healthy limb” value ([2]; 0.5 mg/kg group) was 434.3 ± 13.4 g/mm^2, the “Threshold of pain sensitivity 2 hours after compounds administration” value ([2]; 0.5 mg/kg intragastrally once) was 269.3 ± 19.4 g/mm^2 and the “Changes in the threshold of pain perception, regarding healthy limb” value ([2]; 3 mg/kg group) was −44.3 ± 2.9%. The “Threshold of pain sensitivity, damaged limb” value ([2]; 3 mg/kg group) was 295.7 ± 29.9 g/mm^2, the “Threshold of pain sensitivity, healthy limb” value ([2]; 3 mg/kg group) was 523.6 ± 28.1 g/mm^2 and the “Threshold of pain sensitivity 2 hours after compounds administration” value ([2]; 3 mg/kg intragastrally once) was 532.8 ± 47.1 g/mm^2.
